Measured values as given in patent US10988429B2, “Quinochalcone compound and uses thereof for treating cancer or inflammation” (CHON THERAPEUTICS INC., LTD., priority 2017, dated 2021).

Legend:
mice melanoma B16 cells = assay: B16 tumor-bearing C57 mice, HB-48 versus DMF (Example 3); type: in vivo, mouse; conditions: intratumor injection 5 mg/kg every two days for 10 days
Experimental: Establishment of tumor-bearing mice model: 1×10^5 mice melanoma B16 cells were transplanted into 4˜6 weeks old C57BL/C mice (C57 mice). The weight of each mouse was about 20 g. Tumors were visible on day 7. Mice were treated as follows when the tumor sizes were 5 mm×5 mm. • Control group 1 (PBS): Intratumor injection with PBS. • Experiment group 2 (HB-48): Intratumor injection with HB-48 at 5 mg/kg every two days for 10 days. • Experiment group 3 (DMF): Intratumor injection with DMF with 5 mg/kg every two days for 10 days.
Tumor sizes were recorded daily.

[1] = test system: OVA-B16 cells co-cultured with OT-1 CD8+ T cells; assay: Apoptosis of OVA-B16 co-cultured with pretreated OT-1 CD8+ T cells (Example 8); type: cell-based, mouse; conditions: T cells pretreated with HB-48 10 μM for 24 hours; co-culture ratio 1 to 10; 4 hours
Experimental: Spleen CD8+ T cells of OT-1 mice were obtained by magnetic bead sorting, seeded in a U-shaped bottom 96-well plate (100,000 cells/well) and treated as follows. • Control group 1 (PBS): medium plus PBS. • Experimental group 2 (DMF): DMF 10 μM was added to the medium. • Experimental group 3 (HB-48): HB-48 10 μM was added to the medium.
After pretreatment of T cells for 24 hours, 3D cultured OVA-B16 was co-cultured with OT-1 CD8+ T cells at a ratio of 1 to 10, and the apoptosis of OVA-B16 cells was detected by flow cytometry after 4 hours.

[2] = test system: PD-1 expression in human peripheral blood CD8+ T cells; assay: PD-1 expression in peripheral blood CD8+ T cells of breast cancer patients (Example 10); type: cell-based; conditions: resting CD8+ T cells of breast cancer patients; HB-48 10 μM; 48 hours; compared with DMF 10 μM
Experimental: Mononuclear cells were obtained from peripheral blood of breast cancer patients using Ficoll. CD8+ T cells were sorted by magnetic beads and plated on U-bottom 96-well plates (100,000 cells/well) supplemented with RPMI-1640 supplemented with 10 ng/mL human IL-2. Dosing by the following groups: • Control group 1 (PBS): medium plus PBS. • Experimental group 2 (DMF): DMF 10 μM was added to the medium. • Experimental group 3 (HB-48): HB-48 10 μM was added to the medium.
(§1) PD-1 expression levels were measured by flow cytometry in each group of T cells at 48 hours.

OVA-B16 melanoma cells = assay: OVA-B16 tumor-bearing C57BL/6 mice, adoptive CD8+ T cells and HB-48 (Example 9); type: in vivo, mouse; conditions: HB-48 intratumoral 5 mg/kg every two days, 10 times, OT-1 T cells 4×10^6 i.v. every 5 days, 3 times
Experimental: Tumor-bearing mice were constructed: OVA-B16 melanoma cells were seeded on C57BL/6 mice (inoculation amount of 1×10^5 cells) for 4-6 weeks. […] When the tumor size reached 5 mm×5 mm, tumor-bearing mice were treated as follows: • Control group 1 (PBS): Intratumoral injection of PBS only. • Experimental group 2 (CD8+ T cells): Tumor bearing mice were intravenously adoptively transferred with 4×10^6 OVA-specific CD8^+ T-cells (OT-1 T-cells) once every 5 days for 3 times. • Experimental group 3 (DMF): Tumor-bearing mice were intratumorally injected with DMF every two days, a total of 10 times, each dose of 5 mg/kg. • Experimental group 4 (HB-48): Tumor-bearing mice were intratumorally injected with HB-48 every two days, a total of 10 times, each dose of 5 mg/kg. • Experimental group 5 (CD8+ T and DMF): Tumor-bearing mice were intravenously transferred with OT-1 T cells every 5 days for 3 times, and intratumorally injected with DMF every two days for 10 times at the same time. • Experimental group 6 (CD8+ T and HB-48): Tumor-bearing mice were intravenously transfered with OT-1 T cells every 5 days for 3 times, and intratumorally injected with HB-48 every two days for 10 times at the same time.
Tumor length and width were measured daily, and tumor volume changes were calculated.

[3] = test system: PD-1 expression in mouse CD8+ T cells; assay: PD-1 expression on activated mouse CD8+ T cells, flow cytometry (Example 8); type: cell-based; conditions: mouse spleen CD8+ T cells activated by anti-CD3/CD28 beads; Kyn 200 μM and HB-48 10 μM; 48 hours
Experimental: Mouse spleen CD8+ T cells were sorted by magnetic beads and seeded in U-bottom 96-well plates (100,000/well) and T cells were activated by anti-CD3/CD28 magnetic beads. The medium was RPMI-1640 plus 10 ng/Mouse IL-2 and […] β-mercaptoethanol. Treatment and dosing is described below: • Control group 1 (PBS): Medium and PBS; • Experimental group 2 (Kyn): Kyn 200 μM was added to the Medium. • Experimental group 3 (Kyn+DMF): Kyn 200 μM and DMF 10 μM were added to the Medium simultaneously. • Experimental group 4 (Kyn+HB-48): Kyn 200 μM and HB-48 10 μM were added to the Medium simultaneously.
as §1

Kyn transporter PAT4 = assay: Expression of Kyn transporter PAT4 in activated human CD8+ T cells, quantitative PCR (Example 10); type: cell-based; conditions: activated CD8+ T cells of breast cancer patients; Kyn 200 μM with or without HB-48 10 μM; 48 hours
Experimental: (§2) Mononuclear cells were obtained from peripheral whole blood of patients with breast cancer using Ficoll. CD8+ T cells were sorted by magnetic beads and plated on 96-well U-shaped bottom plates (100,000 cells/well). T cells were activated by anti-CD3/CD28 magnetic beads. Media was RPMI-1640 plus 10 ng/mL human IL-2. Dosing by the following groups: • Control group 1 (PBS): medium and PBS. • Experimental group 2 (Kyn): Kyn 200 μM was added to the medium. • Experimental group 3 (Kyn+DMF): Kyn 200 μM and DMF 10 μM were added to the medium simultaneously. • Experimental group 4 (Kyn+HB-48): Kyn 200 μM and HB-48 10 μM were added to the medium simultaneously.
Each group of T cells RNA was extracted after 48 hours, and the expression of PAT4 was detected by fluorescence quantitative PCR.

[4] = test system: inflammatory factors of macrophages derived from murine bone marrow; assay: Expression of inflammatory factors in bone marrow-derived macrophages, qPCR (Example 13); type: cell-based, mouse; conditions: HB-48 10 μM, 48 h
Experimental: Bone marrow-derived macrophages were obtained from mouse bone marrow cells, RPMI-1640 plus mouse M-CSF 20 ng/mL for 5 days and were treated as follows: • Control group 1 (PBS): medium plus PBS; • Experimental group 2 (HB-48): medium plus HB-48 at a dose of 10 μM. After 48 h, macrophages were collected and the expression of IFN-γ, TNF-α, IL-12p35, IL-12p40 and IL-2 was detected by qPCR in both groups.

[5] = test system: PD-1 expression in human activated CD8+ T cells; assay: Kyn-mediated PD-1 upregulation in activated peripheral blood CD8+ T cells of breast cancer patients (Example 10); type: cell-based; conditions: Kyn 200 μM and HB-48 10 μM, 48 hours, compared with DMF 10 μM
Experimental: as §2, §1

[6] = test system: A375, B16, MP-1, MCF-7, HL-60, K562 and ALL-1 cells; assay: 3D gel culture, clone size, HB-48 alone (Example 1); type: cell-based, human; mouse (B16); conditions: 3D culture; HB-48 1, 5, 10, 20 or 50 μmol/ml; 48 and 96 hours
Experimental: 3D gel technology involves culturing cells in a gel-like matrix. Studies in our lab have shown that cancer cells grown using 3D technology behave more like cancers found in vivo, as cancer cells grown using 3D technology display strong proliferative ability, higher drug resistance, stronger tumorigenicity and greater far-end invasion transfer ability than cancer cells cultured using traditional methods. The following treatments were added to 3D cultures of viable cells. • Control group 1 (Medium): RPMI-1640 medium supplemented with glutamine. • Experiment group1 (HB-48): HB-48 was added to cells at a final concentration of 1 μmol/ml, 5 μmol/ml, 10 μmol/ml, 20 μmol/ml, or 50 μmol/ml in Medium.
Dosing drugs was recorded as day 0. Clone size was determined by taking photographic images 48 and 96 hours after dosing. ImageJ software was used to analyze the size of the clones. The clone sizes in different groups were normalized to the control group on the second day.

[7] = test system: A375, B16, MP-1, MCF-7, HL-60, K562 and ALL-1 cells; assay: 3D gel culture, number of colonies, HB-48 alone (Example 2); type: cell-based, human; mouse (B16); conditions: 3D culture; HB-48 1, 5, 10, 20 or 50 μmol/ml
Experimental: The following treatments were added to cultures of viable cells. • Control group 1 (Medium): RPMI-1640 medium supplemented with glutamine. • Experiment group1 (HB-48): HB-48 was added to cells at a final concentration of 1 μmol/ml, 5 μmol/ml, 10 μmol/ml, 20 μmol/ml, or 50 μmol/ml in Medium.
The day of drug treatment was recorded as day 0. […] The size of colonies in group control on day 2 is served as control.

SMILES | tumor growth (tumor volume) (mice melanoma B16 cells) | percentage of apoptosis of OVA-B16 tumor cells [1] | PD-1 expression in peripheral blood CD8+ T cells [2] | therapeutic effect (tumor volume) (OVA-B16 melanoma cells) | Kyn-mediated upregulation of PD-1 in CD8+ T cells [3] | expression of PAT4 in peripheral blood CD8+ T cells (Kyn transporter PAT4) | expression of IFN-γ [4] | expression of IL-1β [4] | expression of IL-12p35 [4] | expression of IL-12p40 [4] | expression of TNF-α [4] | Kyn-mediated upregulation of PD-1 in peripheral blood CD8+ T cells [5] | growth (relative clone size) of solid tumor and leukemia cells [6] | colony numbers of solid tumor cells and leukemia cells [7]
COc1ccc(-c2cc(=O)c3ccccc3o2)cc1OC [DMF, 3′,4′-Dimethoxyflavone, reference compound] | could inhibit the tumor growth | – | – | – | – | – | – | – | – | – | – | – | – | –
COCOC1=CC(=O)/C(=C(O)/C=C/c2ccc(OCOC)cc2)C(=O)C1(CC=C(C)C)CC=C(C)C [HB-48, 2-[1-hydroxy-3-(4-methoxymethoxyphenyl)allylidene]-5-methoxymethoxy-6,6-diprenylcyclohex-4-ene-1,3-dione] | shows a significant enhanced anticancer effect | significantly increased | more effectively down-regulated PD-1 expression | had a certain therapeutic effect | inhibited Kyn-mediated upregulation of PD-1 in CD8+ T cells more effectively than DMF | can down-regulate the expression of PAT4 | significantly reduced | significantly reduced | significantly reduced | significantly reduced | significantly reduced | inhibited Kyn-mediated upregulation of PD-1 | significantly inhibited the growth of solid tumor and leukemia cells in a concentration-dependent manner | effectively reduced the colony numbers of solid tumor cells and leukemia cells in a dose dependent manner
Nc1ccccc1C(=O)CC(N)C(=O)O (stereo not shown) [Kyn, Kynurenine, reference compound] | – | – | – | – | – | can up-regulate the expression of its transporter PAT4 | – | – | – | – | – | – | – | –
